Measurements as given in ChEMBL document CHEMBL4052722, “Virtual screening, synthesis and biological evaluation of DNA intercalating antiviral agents” (Bioorg Med Chem Lett, 2017).

Species: Bos taurus
Assay: Displacement of ethidium bromide from calf thymus DNA by fluorescence binding assay

Going from `CCN(CC)CCNC(=O)c1cc2c(ccc3ccccc32)o1` to `CCN(CC)CCCNC(=O)c1cc2c(ccc3ccccc32)o1`, the log Ka rises from 5.77 to 6.12.

First: CC1CCCCN1CCn1c2ccccc2c2nc3ccccc3nc21 (configuration not stated)
Second: c1ccc2nc3c(nc2c1)c1ccccc1n3CCCCCCN1CCCCC1
The log Ka of the first is lower: 5.19 for the first, 5.95 for the second.

Going from `CN(C)CCCN1C(=O)c2cccc3cccc(c23)C1=O` to `CCN(CC)CCCN1C(=O)c2cccc3cccc(c23)C1=O`, the log Ka falls from 7.07 to 6.57.

Going from `CCN(CC)CCNC(=O)CN1C(=O)c2cccc3cccc(c23)C1=O` to `CCN(CC)CCCNC(=O)CN1C(=O)c2cccc3cccc(c23)C1=O`, the log Ka falls from 5.54 to 5.31.

`O=C1c2cccc3cccc(c23)C(=O)N1CCNCCO` and `CNCCCN1C(=O)c2cccc3cccc(c23)C1=O` are the same in log Ka: 5.57 for the first, 5.57 for the second.

Compared with `CCN(CC)CCCNC(=O)CCCn1c2ccccc2c2nc3ccccc3nc21`, `O=C(CCCn1c2ccccc2c2nc3ccccc3nc21)NCCCNCCO` is higher in log Ka: 4.77 for the first, 5.09 for the second.

Compared with `O=C(CN1C(=O)c2cccc3cccc(c23)C1=O)NCCN1CCOCC1`, `O=C(CN1C(=O)c2cccc3cccc(c23)C1=O)NCCCN1CCOCC1` is lower in log Ka: 5.68 for the first, 5.46 for the second.

First: O=C(Cn1c2ccccc2c2nc3ccccc3nc21)NCCN1CCNCC1
Second: O=C(CCCn1c2ccccc2c2nc3ccccc3nc21)NCCN1CCNCC1
The log Ka of the first is higher: 5.72 for the first, 4.97 for the second.

Going from `CCN(CC)CCN1C(=O)/C(=N/NC(=O)CCN2CCCCCC2)c2ccccc21` to `CCN(CC)CCN1C(=O)/C(=N\NC(=O)CN2CCCCCC2)c2ccccc21`, the log Ka rises from 6.03 to 6.32.

Going from `CCN(CC)CCN1C(=O)/C(=N\NC(=O)CN2CCCCC2)c2ccccc21` to `CCN(CC)CCN1C(=O)/C(=N\NC(=O)CCN2CCOCC2)c2ccccc21`, the log Ka rises from 5.74 to 6.08.

Going from `O=C(CN1CCOCC1)NN1C(=O)c2cccc3cccc(c23)C1=O` to `O=C(CN1CCCCC1)NN1C(=O)c2cccc3cccc(c23)C1=O`, the log Ka rises from 5.34 to 6.2.

Going from `O=C1c2cccc3cccc(c23)C(=O)N1NCCN1CCOCC1` to `O=C1c2cccc3cccc(c23)C(=O)N1CCCN1CCOCC1`, the log Ka rises from 5.38 to 6.93.

Going from `O=C1c2cccc3cccc(c23)C(=O)N1CCN1CCCCC1` to `O=C(CCCCCN1C(=O)c2cccc3cccc(c23)C1=O)NCCN1CCOCC1`, the log Ka rises from 5.29 to 5.53.

Going from `O=C(CN1CCOCC1)N/N=C1\C(=O)Nc2ccccc21` to `O=C(CN1CCCC1)N/N=C1\C(=O)Nc2ccccc21`, the log Ka rises from 5.28 to 5.58.

Compared with `CN1CCN(CCCCCCn2c3ccccc3c3nc4ccccc4nc32)CC1`, `CN1CCN(CCCCCn2c3ccccc3c3nc4ccccc4nc32)CC1` is lower in log Ka: 6.45 for the first, 6.23 for the second.

First: CN(C)CCCNC(=O)CN1C(=O)c2cccc3cccc(c23)C1=O
Second: CN(C)CCCNC(=O)CCN1C(=O)c2cccc3cccc(c23)C1=O
The log Ka of the first is lower: 5.63 for the first, 5.92 for the second.

First: CCN(CC)CCNC(=O)CCCCCN1C(=O)c2cccc3cccc(c23)C1=O
Second: CN(C)CCCNC(=O)CCCN1C(=O)c2cccc3cccc(c23)C1=O
The log Ka of the first is lower: 5.49 for the first, 5.95 for the second.

`CN(C)CCCNC(=O)c1cc2c(ccc3ccccc32)o1` and `O=C(NCCCN1CCOCC1)c1cc2c(ccc3ccccc32)o1` are within 0.2 log units of each other in log Ka: 5.48 for the first, 5.64 for the second.

First: O=C(CCCn1c2ccccc2c2nc3ccccc3nc21)NCCNCCO
Second: O=C(NCCN1CCOCC1)c1cc2c(ccc3ccccc32)o1
The log Ka of the first is higher: 5.05 for the first, 4.58 for the second.

First: CCN(CC)CCN1C(=O)c2cccc3cccc(c23)C1=O
Second: CCN(CC)CC(=O)NN1C(=O)c2cccc3cccc(c23)C1=O
The log Ka of the first is higher: 6.98 for the first, 5.6 for the second.

System: Vesicular stomatitis virus
Assay: Antiviral activity against Vesicular stomatitis virus at 0.2 to 620 uM after 24 hrs post infection relative to control
Format: functional

First: CC1CCCCN1CCn1c2ccccc2c2nc3ccccc3nc21 (configuration not stated)
Second: CC1CCN(CCn2c3ccccc3c3nc4c(nc32)CCCC4)CC1
The Activity of the first is lower: 90% for the first, 95% for the second.

Compared with `CCCN(CCC)CCn1c2ccccc2c2nc3c(nc21)CCCC3`, `CN(C)CCn1c2ccccc2c2nc3c(nc21)CCCC3` is lower in Activity: 90% for the first, 88% for the second.

Going from `c1ccc2c(c1)c1nc3c(nc1n2CCN1CCOCC1)CCCC3` to `c1ccc2c(c1)c1nc3c(nc1n2CCN1CCCCC1)CCCC3`, the Activity falls from 66% to 65%.

Work on `CN1CCN(CCn2c3ccccc3c3nc4c(nc32)CCCC4)CC1` yielded an Activity of 100%.
